Experimental findings from patent US20240199555A1, “APPLICATIONS OF BIASED LIGANDS OF THE SEROTONIN 5-HT7 RECEPTOR FOR THE TREATMENT OF PAIN, MULTIPLE SCLEROSIS AND THE CONTROL OF THERMOREGULATION” (Centre National de la Recherche Scientifique, priority 2021, published 2024) are described below.

pIC50, pKi: −log10 of the molar value. Read-outs that look alike come from different tables or passages of the source.

Test [1] deals with human 5-HT7a receptor (Homo sapiens (Human), UniProt P34969). The experiment in a line: Radioligand binding competition, filtration binding assay, 5-HT7a. The following applies: affinity on 5-HT7 receptor, table of new compounds. The procedure: (§1) FIG. 14: Testing of 8 molecules for radioligand binding competition activity on recombinant human 5-HT1A, 5-HT2A, 5-HT2Cedited, 5-HT6, 5-HT7 and D2(long) receptors using filtration binding assays.
Sequence of human 5-HT7a receptor (P34969 other isoform, or with tags, fused parts or gaps): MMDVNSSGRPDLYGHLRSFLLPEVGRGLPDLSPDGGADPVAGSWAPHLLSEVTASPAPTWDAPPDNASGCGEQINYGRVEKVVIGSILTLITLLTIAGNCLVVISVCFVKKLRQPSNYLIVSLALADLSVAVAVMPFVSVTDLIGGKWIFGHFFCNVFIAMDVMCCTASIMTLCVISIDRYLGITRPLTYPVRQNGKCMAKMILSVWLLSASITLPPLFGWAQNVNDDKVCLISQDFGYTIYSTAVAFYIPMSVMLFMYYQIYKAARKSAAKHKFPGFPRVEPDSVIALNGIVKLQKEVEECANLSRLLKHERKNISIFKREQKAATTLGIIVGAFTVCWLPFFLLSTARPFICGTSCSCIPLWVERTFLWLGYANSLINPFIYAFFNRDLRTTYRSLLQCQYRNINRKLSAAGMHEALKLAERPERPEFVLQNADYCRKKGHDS
(§2) Radioligand Binding experiments were conducted with Epics Therapeutics membrane preparations. Receptor accession numbers, cellular background and reference compounds are shown in this table.
Reference values thus obtained for the test were compared to historical values obtained from the same receptor and used to validate the experimental session. For replicate determinations, the maximum variability tolerated in the test was of +/−20% around the average of the replicates.
(§3) Dose-response data from test compounds were analyzed with XLfit (IDBS) software using nonlinear regression applied to a sigmoidal dose-response model and the following equation: • XL Fit fit Model 203: 4 Parameter Logistic Model • A: Bottom • B: TOP • C: LogEC50 • D: Hill

Test [2] addresses human 5-HT2Cedited receptor (Homo sapiens, UniProt P28335). The experiment in a line: Radioligand binding competition, 5-HT2Cedited. The procedure: as §1, §2
(§4) The new compounds have been tested by radioligand binding competition activity at the human 5-HT1A (FAST-0500B), 5-HT2A (FAST-0505B), 5-HT2Cedited (FAST-0507B), 5-HT6 (FAST-0509B), 5-HT7a (FAST-05111B) and D2(long) (FAST-0101B) receptors at seven (7) concentrations, in duplicate. […] Reference values thus obtained for the test were compared to historical values obtained from the same receptor and used to validate the experimental session. For replicate determinations, the maximum variability tolerated in the test was of +/−20% around the average of the replicates.
as §3

Test [3] deals with human 5-HT2A receptor (Homo sapiens (Human), UniProt P28223). The experiment in a line: Radioligand binding competition, 5-HT2A. The following applies: selectivity panel; for pIC50: read-out: RLB 5-HT2A IC50; for pKi: read-out: RLB 5-HT2A Ki. The procedure:
as §1, §2, §4, §3

Test [4] concerns the target human 5-HT1A receptor (Homo sapiens (Human), UniProt P08908). The experiment in a line: Radioligand binding competition, 5-HT1A. The following applies: selectivity panel; for pIC50: read-out: RLB 5-HT1A IC50; for pKi: read-out: RLB 5-HT1A Ki. The procedure:
as §1, §2, §4, §3

Test [5] deals with mice. The experiment in a line: Tail immersion test (50° C.). The format is in vivo. To be noted: administrated alone, i.p. The procedure:
(A) Experimental protocol summary used. (B) Mice were subcutaneously injected with two different doses of the 5-HT7 receptor agonist Serodolin, 1 mg/kg or 5 mg/kg and 10 min later their tail extremity was immersed in water heated to 50 degrees. […] The effect of injections (Serodolin or E55888) was evaluated at TO, 30 min and 60 min corresponding to 10, 40 and 70 min after compound injections. […] Their tail extremity was immersed in water heated to 50 degrees at TO (E) or 30 min later (F) corresponding to 10 and 40 min after agonist injections. […] Statistical analysis was done using Tukey's multiple comparison test.
Tail immersion test. Nociception was assessed with the tail immersion test, 10 min and 40 min after E55888 (5 mg/kg) or Serodolin (5 mg/kg) tail subcutaneous injections, in the water heated to 50° C. Vehicle (20% DMSO, 5% Tween 80 diluted in PBS solution) was used as a control group. These different groups were intraperitoneally injected (+) or not (−) with the 5-HT7R antagonist SB269960 (5 mg/kg) 10 min before the ligand injection. The tail withdrawal latency (s) was measured for each animal.

Sequence of human 5-HT2A receptor (P28223 whole entry): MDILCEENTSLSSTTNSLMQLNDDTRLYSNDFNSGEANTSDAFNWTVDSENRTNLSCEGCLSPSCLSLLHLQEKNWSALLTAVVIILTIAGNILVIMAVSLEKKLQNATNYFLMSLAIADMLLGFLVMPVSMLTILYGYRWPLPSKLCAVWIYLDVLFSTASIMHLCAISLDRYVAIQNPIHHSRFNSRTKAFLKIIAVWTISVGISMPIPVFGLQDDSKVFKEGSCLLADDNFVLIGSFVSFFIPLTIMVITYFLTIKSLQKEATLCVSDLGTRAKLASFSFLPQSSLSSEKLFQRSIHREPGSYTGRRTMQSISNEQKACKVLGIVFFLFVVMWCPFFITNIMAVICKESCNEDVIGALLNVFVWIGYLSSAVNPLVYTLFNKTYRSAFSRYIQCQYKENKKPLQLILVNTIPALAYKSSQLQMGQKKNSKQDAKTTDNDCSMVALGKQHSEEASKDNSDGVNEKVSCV
Sequence of human 5-HT2Cedited receptor (P28335 33-458 limits assumed): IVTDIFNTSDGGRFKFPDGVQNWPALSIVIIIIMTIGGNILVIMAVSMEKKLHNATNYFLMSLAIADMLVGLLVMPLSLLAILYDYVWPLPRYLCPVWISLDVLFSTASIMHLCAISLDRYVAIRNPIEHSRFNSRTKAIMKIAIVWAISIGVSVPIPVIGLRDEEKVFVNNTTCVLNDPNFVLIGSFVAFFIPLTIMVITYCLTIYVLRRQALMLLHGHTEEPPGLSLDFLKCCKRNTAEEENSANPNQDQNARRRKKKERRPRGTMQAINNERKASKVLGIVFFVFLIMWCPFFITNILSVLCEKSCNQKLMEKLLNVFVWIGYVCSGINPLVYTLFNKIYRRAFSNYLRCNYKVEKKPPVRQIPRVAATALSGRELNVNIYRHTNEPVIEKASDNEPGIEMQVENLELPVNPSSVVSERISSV
Sequence of human 5-HT1A receptor (P08908 whole entry): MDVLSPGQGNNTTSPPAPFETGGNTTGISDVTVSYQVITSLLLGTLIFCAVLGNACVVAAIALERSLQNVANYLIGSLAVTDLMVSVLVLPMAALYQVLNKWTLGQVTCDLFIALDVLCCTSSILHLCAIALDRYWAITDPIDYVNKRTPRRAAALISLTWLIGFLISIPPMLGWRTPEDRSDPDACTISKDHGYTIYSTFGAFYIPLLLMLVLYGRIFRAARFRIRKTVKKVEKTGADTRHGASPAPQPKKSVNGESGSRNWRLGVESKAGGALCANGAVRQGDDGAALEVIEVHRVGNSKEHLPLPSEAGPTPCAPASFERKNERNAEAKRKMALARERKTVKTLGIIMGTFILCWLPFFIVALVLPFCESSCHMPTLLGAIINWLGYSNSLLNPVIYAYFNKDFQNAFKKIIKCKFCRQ

In general, pIC50 refers to the negative decadic logarithm of the IC50, by convention in mol/L. For orientation: pKi means −log10 of the Ki, conventionally taken in molar units. In test [1], `O=c1[nH]c2ccccc2n1CCCCCN1CCN(c2ccccc2O)CC1` [JLB010] had a pIC50 of 8.10 and a pKi of 8.25.
Taken in the same sequence, the figures for `O=c1[nH]c2ccccc2n1CN1CCN(c2ccccc2C(F)(F)F)CC1` [JLB011] were 8.32 and 8.48.
As for `O=c1[nH]c2ccccc2n1CCCCCN1CCN(c2ccccn2)CC1` [JLB012], the pIC50 in test [2] (read-out: RLB 5-HT2Cedited IC50; selectivity panel) is 5.28; in test [3], 7.35; in test [1], 8.77; in test [4] it was 7.38. The pKi in test [2] (read-out: RLB 5-HT2Cedited Ki; selectivity panel) is 6.06; in test [3] it was 8.14; in test [1], 8.93; in test [4], 7.68.
For `O=c1[nH]c2ccccc2n1CCCCCN1CCN(c2ncccn2)CC1` [JLB013], in test [1], the pIC50 was 8.01 and the pKi was 8.17.
The corresponding values for `O=c1[nH]c2ccccc2n1CCCCCN1CCN(c2ccccc2F)CC1` [JLB014] are 8.48 and 8.64.
Taken in the same sequence, the figures for `O=c1[nH]c2ccccc2n1CCCCCN1CCN(c2ccc(F)cc2)CC1` [JLB015] were 8.36 and 8.51.
Taken in the same sequence, the figures for `O=c1[nH]c2ccccc2n1CCCCCN1CCN(c2ccc(C(F)(F)F)cc2)CC1` [JLB017] were 8.14 and 8.30.
Consider `O=c1[nH]c2ccccc2n1CCCCCN1CCN(c2ccncc2)CC1` [JLB020], for which, in test [1], the pIC50 is 6.59 and the pKi was 6.74.
Taken in the same sequence, the figures for `O=c1[nH]c2ccccc2n1CCCCCN1CCN(c2ccncn2)CC1` [JLB022] were 6.87 and 7.02.
Taken in the same sequence, the figures for `O=c1[nH]c2ccccc2n1CCCCCN1CCN(c2ncncn2)CC1` [JLB023] were 6.43 and 6.59.
Taken in the same sequence, the figures for `O=c1[nH]c2ccccc2n1CCOCCN1CCN(c2ccc(F)cc2)CC1` [JLB048] were 7.72 and 7.87.
Turning to `O=c1[nH]c2ccccc2n1CCCCCN1C[C@@H]2CN(c3ccc(F)cc3)C[C@@H]2C1` [JLB061], in test [1], the pIC50 is 8.22 and the pKi was 8.38.
The corresponding values for `O=c1[nH]c2ccccc2n1CCCCCN1CC2(C1)CN(c1ccc(F)cc1)C2` [JLB088, 1-(5-(6-(4-fluorophenyl)-2,6-diazaspiro[3.3]heptan-2-yl)pentyl)-1H-benzo[d]imidazol-2(3H)-one] are 6.76 and 6.91.
As to `CC(C)(CCN1CCN(c2ccc(F)cc2)CC1)CCn1c(=O)[nH]c2ccccc21` [JLB094], the pIC50 in test [2] (selectivity panel; read-out: RLB 5-HT2Cedited IC50) was 5.96; in test [3], 8.21; in test [1], 8.57; in test [4] it was 6.78. Also, the pKi in test [2] (selectivity panel; read-out: RLB 5-HT2Cedited Ki) is 6.74; in test [3] it was 8.99; in test [1], 8.72; in test [4], 7.08.
In test [1], `O=c1[nH]ccn1CCCCCN1CCN(c2ccc(F)cc2)CC1` [JLB102, 1-(5-(4-(4-fluorophenyl)piperazin-1-yl)pentyl)-1H-imidazol-2(3H)-one] showed a pIC50 of 7.77 and a pKi of 7.92.
Taken in the same sequence, the figures for `O=c1[nH]c2ccccc2n1CCCCCN1CCCN(c2ccccn2)CC1` [JLB118, 1-(5-(4-(pyridin-2-yl)-1,4-diazepan-1-yl)pentyl)-1H-benzo[d]imidazol-2(3H)-one] were 7.16 and 7.31.
The corresponding values for `Cc1ccc(N2CCCN(CCCCCn3c(=O)[nH]c4ccccc43)CC2)cc1` [JLB119, 1-(5-(4-(p-tolyl)-1,4-diazepan-1-yl)pentyl)-1H-benzo[d]imidazol-2(3H)-one] are 7.62 and 7.77.
The corresponding values for `Cc1ccc(N2CC3(CN(CCCCCn4c(=O)[nH]c5ccccc54)C3)C2)cc1` [JLB137, 1-(5-(6-(p-tolyl)-2,6-diazaspiro[3.3]heptan-2-yl)pentyl)-1H-benzo[d]imidazol-2(3H)-one] are 6.16 and 6.32.
In test [1], `O=c1[nH]c2ccccc2n1CCCCCN1CC2(C1)CN(c1ccccn1)C2` [JLB138, 1-(5-(6-(pyridin-2-yl)-2,6-diazaspiro[3.3]heptan-2-yl)pentyl)-1H-benzo[d]imidazol-2(3H)-one] showed a pIC50 of 5.30 and a pKi of 5.45.
In test [1], `O=c1[nH]c2ccccc2n1CCCCCN1CCN(c2ccc(O)cc2)CC1` [MOA43] had a pIC50 of 8.71 and a pKi of 8.86.
For `CC1CCN(CC[C@H]2CCCN2S(=O)(=O)c2cccc(O)c2)CC1` [SB269970, reference compound], the “acute thermal nociception, antagonist administrated alone” value in test [5] is recorded as “did not exert any significant effect on acute thermal nociception”.
